Data reported in US5214036A, “Benzoporphyrin derivatives for photodynamic therapy” (University of British Columbia, priority 1990, dated 1993).

Key:
HDL = test: Step density gradient of BPD added to isolated lipoprotein fraction; format: in vitro ADME, human; details: added to lipoprotein fraction after separation of albumin, % of total added
Protocol: (§1) (b) Determining BPD Plasma Distribution. Experiments were performed to determine the association of BPDs with plasma protein and lipoprotein fractions. When density ultracentrifugation was used for the analysis, 2 ml samples of human plasma were incubated for 18 hours at 4° C. in the presence of 100 μg of ^3 H-BPD-MA. The BPD-plasma solution was then adjusted to a density of 1.21 g/ml by the addition of solid KBr. A step gradient was prepared using stock KBr density solutions at 1.006, 1.019, and 1.063 g/ml, layered manually into the bottom of centrifuge tubes using a glass syringe and a narrow bore needle. The BPD-plasma solution was then layered into the bottom of the tube. Separation of the plasma proteins was accomplished by centrifugation in a Beckman SW 41 rotor for 24 hours at 40,000 rpm and 15° C. 0.5 ml fractions were collected, and the protein content of each fraction was monitored by measuring absorbance at 280 nm. 100 μl of each fraction was mixed with 5 ml Aquasol (NEN) and counted in a liquid scintillation counter.
(§2) To improve the HDL-albumin resolution, albumin was removed by ultracentrifugation. Plasma was mixed with ^14 C-BPD-MA and incubated for 18 hours at 4° C. The density of the mixture was then adjusted to 1.21 g/ml by the addition of solid KBr, followed by centrifugation at 40,000 rpm for 48 hours. […] The lipoprotein and lipoprotein-depleted fractions were counted for BPD-MA content. 82% of total ^14 C-BPD-MA added was recovered in the plasma lipoprotein fraction and 5% in the lipoprotein deficient fraction.
(§3) When albumin and other serum proteins were separated from the lipoprotein fraction before the addition of ^14 C-BPD-MA, a shift in binding was observed. After step density gradient separation, the majority of BPD-MA was still recovered with HDL (38% of total ^14 C-BPD-MA added); however in this case, the association with LDL and VLDL fractions appeared to be equivalent (17% with LDL and 18% with VLDL) (FIG. 5). […] Polyacrylamide gel electrophoresis of the HDL fractions from these density gradients confirmed that very little albumin was present. […]

LDL = test: as above; format: in vitro ADME, human; details: added to lipoprotein fraction after separation of albumin, % of total added
Protocol: as §1, §2, §3

VLDL = test: as above; format: in vitro ADME, human; details: added to lipoprotein fraction after separation of albumin, % of total added
Protocol: as §1, §2, §3

[1] = Absorption spectrum / absorption maximum; format: physicochemical; details: FIG. 3
[2] = background; cited from earlier work
[3] = tested on: high density lipoproteins (HDLs); details: Barel et al.; cited from earlier work

Compound | recovered with HDL (HDL) | associated with LDL (LDL) | associated with VLDL (VLDL) | major absorption peak [1] | additional absorbance [2] | maximum absorbance [2] | affinity for high density lipoproteins [3]
C=Cc1c(C)c2cc3nc(cc4[nH]c(cc5nc(cc1[nH]2)C(C)=C5CCC(=O)O)c(CCC(=O)O)c4C)C1(C)C3=CC=C(C(=O)OC)C1C(=O)OC (stereo not shown) [BPD-DA] | 54% | 13% | 20% | about 685 nm |  |  | 
CC1=C(CCC(=O)O)c2cc3[nH]c(cc4nc(cc5[nH]c(cc1n2)c(C)c5C(C)O)C(C)=C4C(C)O)c(C)c3CCC(=O)O (stereo not shown) [hematoporphyrin] |  |  |  |  | around 630 nm | around 400 nm | higher affinity for high density lipoproteins (HDLs)
